This note sets out measurements from patent US8846746B2, “Pyrazole compound and pharmaceutical use thereof” (Japan Tobacco Inc., priority 2011, dated 2014).

Structures are written as SMILES.

Usually IC50 stands for the concentration at which inhibition is half-maximal. High values mean weaker potency, low ones greater potency. The term inhibition denotes the change of the read-out against control, counted positive when it falls.

In the first experiment the target is human SGLT1 (Homo sapiens (Human), UniProt P13866). Kind of experiment: SGLT1 inhibitory activity: 14C-AMG uptake into CHO-K1 cell line stably expressing human SGLT1. Type of experiment: cell-based. The note with it: 14C-AMG uptake, CHO-K1 cells stably expressing human SGLT1. A digest of the protocol: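 Human SGLT1 was stably expressed in CHO-K1 cells. Cells were first held 20 min in sodium-free buffer, then exposed to compound in Na(+)/BSA buffer with tracer and AMG (2 mM in the added solution).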
Chain of human SGLT1 (P13866 whole entry): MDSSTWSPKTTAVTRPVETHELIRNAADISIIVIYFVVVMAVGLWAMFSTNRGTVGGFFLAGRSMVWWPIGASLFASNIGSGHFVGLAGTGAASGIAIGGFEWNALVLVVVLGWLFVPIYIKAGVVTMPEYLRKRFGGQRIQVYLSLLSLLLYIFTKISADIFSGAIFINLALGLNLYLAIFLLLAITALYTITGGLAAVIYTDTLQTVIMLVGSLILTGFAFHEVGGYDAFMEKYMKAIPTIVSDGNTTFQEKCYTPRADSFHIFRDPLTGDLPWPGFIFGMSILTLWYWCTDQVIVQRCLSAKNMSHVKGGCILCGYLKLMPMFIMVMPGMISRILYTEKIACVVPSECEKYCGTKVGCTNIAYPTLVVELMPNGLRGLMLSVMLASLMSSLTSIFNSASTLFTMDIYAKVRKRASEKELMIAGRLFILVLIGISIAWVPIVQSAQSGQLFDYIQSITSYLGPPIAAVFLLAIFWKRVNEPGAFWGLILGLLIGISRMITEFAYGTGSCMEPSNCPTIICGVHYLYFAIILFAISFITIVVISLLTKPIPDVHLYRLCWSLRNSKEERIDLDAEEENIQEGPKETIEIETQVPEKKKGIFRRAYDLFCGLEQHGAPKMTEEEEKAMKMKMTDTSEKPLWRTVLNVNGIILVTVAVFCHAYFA
As to `CCC(CC)OCc1cccc(-c2cc(NC(=O)[C@@H]3CNC(=O)C3)nn2-c2ccccc2)c1` [Example 332], the IC50 was 22 nM. Same read-out and setting: as for `C[C@@H](OCc1cccc(-c2cc(NC(=O)[C@@H]3CNC(=O)C3)nn2-c2ccccc2)c1)C(F)(F)F` [Example 334], the figure is 6.3 nM; as for `C[C@H](OCc1cccc(-c2cc(NC(=O)[C@@H]3CNC(=O)C3)nn2-c2ccccc2)c1)C(F)(F)F` [Example 335], 16 nM. On the same count and under the same terms, next, `O=C1NC[C@H](C(=O)Nc2cc(-c3cccc(COCCC(F)(F)F)c3)n(-c3ccccc3)n2)O1` [Example 337]: 32 nM. Still for that read-out and setting: as for `CCCc1cccc(-c2cc(NC(=O)[C@@H]3CNC(=O)C3)nn2-c2cccc(OCc3ccccc3)c2)c1` [Example 340], the figure is 16 nM; as for `CCCc1cccc(-c2cc(NC(=O)[C@@H]3CNC(=O)C3)nn2-c2cccc(O)c2)c1` [Example 341], 60 nM. Compound `CCCc1cccc(-c2cc(NC(=O)[C@@H]3CNC(=O)C3)nn2-c2cccc(OC)c2)c1` [Example 343] had an IC50 of 7.2 nM.

For `CCCc1cccc(-c2cc(NC(=O)[C@@H]3CNC(=O)C3)nn2-c2cccc(OC(C)C)c2)c1` [Example 344], the IC50 was determined as 3.35 nM. Still for that read-out and setting: next, `CCCc1cccc(-c2cc(NC(=O)[C@@H]3CNC(=O)N3CCOC)nn2-c2ccccc2)c1` [Example 345]: 7.9 nM; `CCCc1cccc(-c2cc(NC(=O)[C@H]3CNC(=O)N3CCOC)nn2-c2ccccc2)c1` [Example 346]: 2.7 nM; `O=C1NC[C@H](C(=O)Nc2cc(-c3cccc(COCC(F)(F)F)c3)n(-c3ccccc3)n2)N1` [Example 349]: 72 nM. Same read-out and setting: as for `CC[C@@H](C)OCc1cccc(-c2cc(NC(=O)[C@@H]3CNC(=O)C3)nn2-c2ccccc2)c1` [Example 350], the figure is 25 nM; as for `CC[C@H](C)OCc1cccc(-c2cc(NC(=O)[C@@H]3CNC(=O)C3)nn2-c2ccccc2)c1` [Example 351], 32 nM. On the same count and under the same terms, as for `CC(C)(OCc1cccc(-c2cc(NC(=O)[C@@H]3CNC(=O)C3)nn2-c2ccccc2)c1)C(F)(F)F` [Example 352], the figure is 14 nM. `CC(OCc1cccc(-c2cc(NC(=O)[C@@H]3CNC(=O)C3)nn2-c2ccccc2)c1)(C(F)(F)F)C(F)(F)F` [Example 353] came in with an IC50 of 16 nM. On the same count and under the same terms, as for `O=C1NC[C@H](C(=O)Nc2cc(-c3cccc(COCCC(F)(F)F)c3)n(-c3ccccc3)n2)N1` [Example 354], the figure is 79 nM; as for `CC(C)(C)C(=O)c1cccc(-c2cc(NC(=O)[C@@H]3CNC(=O)C3)nn2-c2ccccc2)c1` [Example 356], 11 nM; as for `CCCc1cccc(-c2cc(NC(=O)[C@@H]3CNC(=O)C3)nn2-c2ccccc2CC)c1` [Example 358], 17 nM. On the same count and under the same terms, next, `CCCc1cccc(-c2cc(NC(=O)[C@@H]3CNC(=O)C3)nn2-c2ccccc2C(C)C)c1` [Example 359]: 39 nM. Same read-out and setting: as for `CCCc1cccc(-c2cc(NC(=O)[C@@H]3CNC(=O)C3)nn2-c2ccc(OC)cc2)c1` [Example 362], the figure is 30 nM. Consider `CCCc1cccc(-c2cc(NC(=O)[C@@H]3CNC(=O)C3)nn2-c2ccc(C(C)C)cc2)c1` [Example 363], for which the midpoint of inhibition, the IC50, lay at 13 nM.

Consider `CC(OCc1cccc(-c2cc(NC(=O)[C@H]3CNC(=O)C3)nn2-c2ccccc2)c1)(C(F)(F)F)C(F)(F)F` [Example 364], for which the IC50 is 8.3 nM.

The compound `C[C@@H](OCc1cccc(-c2cc(NC(=O)[C@H]3CNC(=O)N3)nn2-c2ccccc2)c1)C(F)(F)F` [Example 365] showed an IC50 of 18 nM. Still for that read-out and setting: as for `O=C1NC[C@H](C(=O)Nc2cc(-c3cccc(COC(C(F)(F)F)C(F)(F)F)c3)n(-c3ccccc3)n2)O1` [Example 366], the figure is 20 nM. Still for that read-out and setting: next, `C[C@@H](OCc1cccc(-c2cc(NC(=O)[C@H]3CNC(=O)O3)nn2-c2ccccc2)c1)C(F)(F)F` [Example 367]: 11.5 nM. Same read-out and setting: next, `CCCc1cccc(-c2cc(NC(=O)[C@@H]3COC(=O)N3)nn2-c2ccccc2)c1` [Example 368]: 56 nM; `CCCc1cccc(-c2cc(NC(=O)[C@H]3COC(=O)N3)nn2-c2ccccc2)c1` [Example 369]: 15 nM; `CCCc1cccc(-c2cc(NC(=O)[C@@H]3CNC(=O)C3)nn2-c2ccc(OCc3ccccc3)cc2)c1` [Example 370]: 6.35 nM. For `CCCc1cccc(-c2cc(NC(=O)[C@@H]3CNC(=O)C3)nn2-c2ccc(O)cc2)c1` [Example 371], the midpoint of inhibition, the IC50, lay at 36 nM. The same measure, in the same setting: as for `CCCc1cccc(-c2cc(NC(=O)[C@@H]3CNC(=O)C3)nn2-c2ccc(OCC)cc2)c1` [Example 372], the figure is 14 nM; as for `CCCc1cccc(-c2cc(NC(=O)[C@@H]3CNC(=O)C3)nn2-c2ccc(OC(C)C)cc2)c1` [Example 373], 5.3 nM.

Regarding `CCCc1cccc(-c2cc(NC(=O)[C@@H]3CNC(=O)C3)nn2-c2ccc(OCCC(F)(F)F)cc2)c1` [Example 374], the IC50 amounted to 8.8 nM. On the same count and under the same terms, next, `CCCc1cccc(-c2cc(NC(=O)[C@@H]3CNC(=O)C3)nn2-c2ccc(OCC(F)(F)F)cc2)c1` [Example 375]: 13 nM. Same read-out and setting: next, `CCCc1cccc(-c2cc(NC(=O)[C@@H]3CNC(=O)C3)nn2-c2ccccc2OC)c1` [Example 376]: 31 nM; `CCCc1cccc(-c2cc(NC(=O)[C@@H]3CNC(=O)C3)nn2-c2ccccc2OC(C)C)c1` [Example 378]: 21 nM; `CCCc1cccc(-c2cc(NC(=O)[C@@H]3CNC(=O)C3)nn2-c2cccc(OCC)c2)c1` [Example 379]: 5.25 nM. Same read-out and setting: next, `CCCOc1cccc(-n2nc(NC(=O)[C@@H]3CNC(=O)C3)cc2-c2cccc(CCC)c2)c1` [Example 380]: 6.75 nM; `CCCc1cccc(-c2cc(NC(=O)[C@@H]3CNC(=O)C3)nn2-c2cccc(OCC(C)C)c2)c1` [Example 381]: 11.5 nM.

Turning to `CCCc1cccc(-c2cc(NC(=O)[C@@H]3CNC(=O)C3)nn2-c2cccc(OC3CCCC3)c2)c1` [Example 382], the midpoint of inhibition, the IC50, lay at 12 nM.

With `CCCOc1ccc(-n2nc(NC(=O)[C@@H]3CNC(=O)C3)cc2-c2cccc(CCC)c2)cc1` [Example 383], the IC50 came to 14 nM.

`CCCc1cccc(-c2cc(NC(=O)[C@@H]3CNC(=O)N3CC(F)(F)F)nn2-c2ccccc2)c1` [Example 384] yielded an IC50 of 48 nM.

`CCCc1cccc(-c2cc(NC(=O)[C@H]3CNC(=O)N3CC(F)(F)F)nn2-c2ccccc2)c1` [Example 385] displayed a half-maximal inhibitory concentration (IC50) of 7 nM. As to `CCCc1cccc(-c2cc(NC(=O)[C@@H]3CNC(=O)C3)nn2-c2ccc(OC(F)(F)F)cc2)c1` [Example 386], the IC50 turned out to be 35 nM. The same measure, in the same setting: next, `CCCc1cccc(-c2cc(NC(=O)[C@@H]3CNC(=O)C3)nn2-c2cccc(OCC(F)(F)F)c2)c1` [Example 387]: 12.5 nM; `CCCc1cccc(-c2cc(NC(=O)[C@@H]3CNC(=O)C3)nn2-c2cccc(OC(=O)OC(C)(C)C)c2)c1` [Example 388]: 5.35 nM; `CCCc1cccc(-c2cc(NC(=O)[C@@H]3CNC(=O)C3)nn2-c2ccc(F)c(OC)c2)c1` [Example 389]: 15 nM. Still for that read-out and setting: as for `CCCc1cccc(-c2cc(NC(=O)[C@@H]3CNC(=O)C3)nn2-c2ccc(F)c(OCC)c2)c1` [Example 390], the figure is 9.4 nM; as for `CCCc1cccc(-c2cc(NC(=O)[C@@H]3CNC(=O)C3)nn2-c2ccc(F)c(OC(C)C)c2)c1` [Example 391], 3.75 nM; as for `CCCc1cccc(-c2cc(NC(=O)[C@@H]3CNC(=O)C3)nn2-c2cccc(C(C)C)c2)c1` [Example 392], 5.7 nM. Same read-out and setting: next, `CCCc1cccc(-c2cc(NC(=O)[C@@H]3CNC(=O)C3)nn2-c2cccc(CC)c2)c1` [Example 393]: 5.25 nM; `CCCc1cccc(-c2cc(NC(=O)[C@@H]3CNC(=O)C3)nn2-c2cccc(C(C)(C)C)c2)c1` [Example 394]: 15 nM; `CCCO[C@H](C)c1cccc(-c2cc(NC(=O)[C@@H]3CNC(=O)C3)nn2-c2ccccc2)c1` [Example 395]: 13 nM. `CCCO[C@@H](C)c1cccc(-c2cc(NC(=O)[C@@H]3CNC(=O)C3)nn2-c2ccccc2)c1` [Example 396] showed an IC50 of 31 nM. Still for that read-out and setting: next, `O=C1C[C@H](C(=O)Nc2cc(-c3cccc(COC(F)(F)F)c3)n(-c3ccccc3)n2)CN1` [Example 399]: 19 nM. For `CCCc1cccc(-c2cc(NC(=O)[C@@H]3CNC(=O)C3)nn2-c2cccc(OC(F)(F)F)c2)c1` [Example 400], the IC50 came to 15 nM. `CCCc1cccc(-c2cc(NC(=O)[C@@H]3CNC(=O)C3)nn2-c2cccc(C(F)(F)F)c2)c1` [Example 401] displayed an IC50 of 13 nM. Compound `CCCc1cccc(-c2cc(NC(=O)[C@@H]3CNC(=O)C3)nn2-c2ccc(C(F)(F)F)cc2)c1` [Example 402] showed an IC50 of 17 nM. Still for that read-out and setting: as for `CCCc1cccc(-c2cc(NC(=O)[C@@H]3CNC(=O)C3)nn2-c2ccc(CC)cc2)c1` [Example 403], the figure is 12 nM; as for `CCCc1cccc(-c2cc(NC(=O)[C@@H]3CNC(=O)C3)nn2-c2cccc(OCCOC)c2)c1` [Example 406], 7.85 nM.

Still in this experiment, the particulars now being: CHO-K1, at 0.1 uM.
In turn, `CCCc1cccc(-c2cc(NC(=O)C3CNC(=O)C34CC4)nn2-c2ccccc2)c1` (centres unmarked) [Example 361] had an inhibition at 0.1 µM of 33%.

`CCCc1cccc(-c2cc(NC(=O)C3CNC(=O)C3(C)C)nn2-c2ccccc2)c1` (centres unmarked) [Example 398] gave an inhibition at 0.1 µM of 7%. Still for that read-out and setting: as for `CCCc1cccc(-c2cc(NC(=O)C3CC(=O)NC3C)nn2-c2ccccc2)c1` (centres unmarked) [Example 405], the figure is 29%.

Staying with this experiment, now noted: CHO-K1, at 0.3 uM.
The compound `CCCc1cccc(-c2cc(NC(=O)[C@H]3CN(CC)C(=O)N3)nn2-c2ccccc2)c1` [Example 330] had an inhibition at 0.3 µM of 11%. The same measure, in the same setting: as for `CCCc1cccc(-c2cc(NC(=O)[C@@H]3CNC(=O)N3CC(=O)O)nn2-c2ccccc2)c1` [Example 347], the figure is 11%; as for `CCCc1cccc(-c2cc(NC(=O)[C@H]3CNC(=O)N3CC(=O)O)nn2-c2ccccc2)c1` [Example 348], 26%.
